Assay [1] addresses T1, MHC class II I-A^b molecules (Mus musculus, UniProt P14434+P14483).
T1 construct: made in house
T1 sequence (P14434 24-256): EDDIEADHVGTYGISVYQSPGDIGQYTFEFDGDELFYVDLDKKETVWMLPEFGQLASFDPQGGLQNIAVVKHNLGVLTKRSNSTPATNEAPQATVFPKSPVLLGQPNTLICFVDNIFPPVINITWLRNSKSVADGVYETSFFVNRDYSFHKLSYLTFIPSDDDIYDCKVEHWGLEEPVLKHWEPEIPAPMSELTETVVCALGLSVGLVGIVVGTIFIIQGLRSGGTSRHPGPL
T1 sequence (P14483 28-265): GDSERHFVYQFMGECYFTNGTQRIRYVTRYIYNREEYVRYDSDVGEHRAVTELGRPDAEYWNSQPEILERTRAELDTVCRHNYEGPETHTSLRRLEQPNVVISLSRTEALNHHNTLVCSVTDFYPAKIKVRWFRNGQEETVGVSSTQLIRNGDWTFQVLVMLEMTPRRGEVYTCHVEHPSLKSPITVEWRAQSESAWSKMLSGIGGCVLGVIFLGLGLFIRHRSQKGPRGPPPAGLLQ
Kind of assay: I-A^b affinity assay (competitive binding against a radiolabeled high-affinity peptide). The note with it: purified I-A^b; for peptide binding affinity for I-A^b: unlabeled peptide vs radiolabeled high-affinity competitor peptide. The method, then:
(§1) FIGS. 2A-2F. Pathogenic AQP4 determinants bind I-A^b with high affinity and elicit proliferation of AQP4: I-A^b-specific TCR-bearing T cells in AQP4-deficient mice. (FIG. 2A) WT or AQP4^−/− mice were immunized s.c. with peptides indicated. Peptide-specific proliferation of draining lymph node cells was measured by 3H-thymidine incorporation (mean±SEM, representative of five experiments). (FIG. 2B) Lymph node cells from AQP4 immunized WT or AQP4^−/− mice were cultured for 3 days with cognate antigen under Th17 polarizing conditions. AQP4 p133-149- and p202-218-specific Th17 cells from AQP4/donors induce paralysis in WT recipient mice. (FIG. 2C) IEDB, an in silico method for predicting determinants within proteins that bind MHC alleles, was used to identify AQP4 amino acid sequences anticipated to bind I-A^b for recognition by AQP4-specific/I-A^b-restricted CD4^+ T cells. 1/IC50 is plotted against the first amino acid for each overlapping AQP4 15 mer. Peaks correspond to increased predicted binding affinity. (FIG. 2D) Purified I-A^b molecules were tested biochemically for peptide binding affinity using a competitive binding assay between a radiolabeled high-affinity competitor peptide and unlabeled peptides (22). Lower IC50 values indicate higher binding affinity. Boxed amino acids designate the core binding regions. (FIGS. 2E-2F) Lymph node T cells isolated from WT or AQP4−/− mice immunized with AQP4 p133-149 or p202-218 were stained with I-A^b:p133-149 and […] tetramers, bead-enriched and analyzed by flow cytometry. […] Each data point represents one mouse. ****p<0.0001 (Mann Whitney U test).
Both AQP4 p133-149 and p202-218 are predicted to bind MHC II (I-A^b) with high affinity according to the Immune Epitope Database (IEDB) (FIG. 2C), an in silico method for predicting determinants within proteins that bind allele-specific MHC molecules for presentation to T cells (21). We have now examined AQP4 peptide affinity for I-A^b biochemically. I-A^b molecules that were purified by affinity chromatography were tested in a competitive binding assay between a radiolabeled high-affinity competitor peptide and unlabeled peptides (22). Indeed, peptides containing the two pathogenic AQP4 T cell determinants bound I-A^b with higher affinity than the nonpathogenic AQP4 p24-35 T cell epitope or MOG p35-55 (FIG. 2D).
I-A^b affinity Assay. Purification of MHC class II I-A^b molecules by affinity chromatography, and the performance of assays based on the inhibition of binding of a high affinity radiolabeled peptide to quantitatively measure peptide binding, were performed as described (22). Lower IC50 values indicate higher binding affinity. Excellent binders have affinities less than 100 nM and good binders have affinities less than 1000 nM.

For assay [2], the system named is draining lymph node cells. Put plainly: Proliferation assay, ^3H-thymidine incorporation after s.c. peptide immunization. It counts as cell-based, mouse. As to the method: as §1
FIGS. 4A-4B. Negative selection of AQP4 p133-149-reactive T cells is bypassed partially in mice deficient in thymic AQP4 expression. (FIG. 4A) AQP4^−/− WT, Foxn1cre-AQP4^fl/fl, Aire^−/−, or Foxn1cre-Fezf2^fl/fl mice were immunized s.c. with peptides indicated. Peptide-specific proliferation of draining lymph node cells was measured by 3H-thymidine incorporation (mean±SEM, representative of five experiments). Comparisons within the five experiments for p133-149 at […]: WT vs. AQP4^−/− (p=0.008), WT vs. Foxn1cre-AQP4^fl/fl (p=0.008). (FIG. 4B) Ten days after peptide immunization, CD4^+ T cells from draining lymph nodes were analyzed for I-A^b: peptide tetramer binding by flow cytometry. Each data point represents the frequency (mean±SEM) of CD4^+ T cells bound to cognate antigen-tetramer in a single mouse. […] For p133-149: WT vs. Aire^−/− (p=0.9), WT vs. Foxn1cre-Fezf2^fl/fl (p=0.3). For p202-218: WT vs. Foxn1cre-AQP4^fl/fl (p=0.3), WT vs. Aire^−/− (p=0.06).
Proliferation assays. Mice were immunized subcutaneously (s.c.) with 100 μg of AQP4, MOG or IRBP peptide in CFA containing 400 μg M. tuberculosis H37Ra (Difco Laboratories). Lymph nodes were harvested on day 10-12 and cultured at 2×10^5/well with various concentrations of peptide in triplicate wells for 72 hours. […] of ^3H-thymidine was added 18 hours prior to cell harvest, and data are presented as counts per minute (CPM). Stimulation Index (SI) was calculated by dividing CPM in wells with Ag by CPM in wells with no antigen controls of each assay test group.
On the technique in general: Uptake of a labelled nucleoside into DNA is a usual measure of proliferation.

The mark [3] stands for this setting: AQP4^−/− mice immunized with the peptide.
Where [4] appears, read: Aire^−/− mice immunized with the peptide.
[5] abbreviates: Foxn1cre-AQP4^fl/fl mice immunized with the peptide.
The mark [6] stands for this setting: WT mice immunized with the peptide.

“Also recorded” adds a separate entry of the source.

LFAINYTGASMNPARSF [AQP4 p202-218]: the “I-A^b binding affinity relative to MOG p35-55” value in assay [1] (competitive binding assay) is “more than ten times greater affinity than MOG p35-55”. The “peptide binding affinity for I-A^b” value in assay [1] is on record as “highest affinity among peptides examined in this report”; in assay [1] (listed as p202-218), “bound I-A^b avidly”. Also, the “peptide-specific proliferation of draining lymph node cells” value in assay [2] (setting [3]) is on record as “robust proliferative responses; also recorded: strong proliferation”; in assay [2] (setting [4]) it was “no significant responses”; in assay [2] (setting [5]), “only marginal responses”; in assay [2] (setting [6]), “no significant responses”.
In the case of LYLVTPPSVVGGLGVT [AQP4 p133-149], in assay [1], the “peptide binding affinity for I-A^b” value is “bound I-A^b avidly”. The “peptide-specific proliferation of draining lymph node cells” value is “robust proliferative T cell responses” in assay [2] (setting [3]); “robust proliferative responses” in assay [2] (AQP4^−/− mice immunized with the peptide, listed as p133-149); “little or no proliferation” in assay [2] (setting [4]); “induced proliferation in Foxn1cre-AQP4^fl/fl mice, but not to the same level as in AQP4^−/− mice” in assay [2] (setting [5]); “little or no proliferation” in assay [2] (Foxn1cre-Fezf2^fl/fl mice immunized with the peptide); “little or no proliferation” in assay [2] (setting [6]).

The record behind these values is patent US20250052751A1, “COMPOSITIONS AND METHODS FOR DIAGNOSING AUTOIMMUNE AQUAPORINOPATHY” (The Regents of the University of California, priority 2023, published 2025).
